Measured values published in ChEMBL document CHEMBL3352341, “Design, synthesis and biological characterization of thiazolidin-4-one derivatives as promising inhibitors of Toxoplasma gondii” (Eur J Med Chem, 2014).
Calls of active or inactive are those of the source.

Columns and labels:
[1] = test system: Toxoplasma gondii; assay: Antiparasitic activity against Toxoplasma gondii infected in human foreskin fibroblasts assessed as inhibition of attachment compound pretreated at 10 uM for 20 mins before infection after 1 hr by fluorescence assay; assay type: functional, organism-based
[2] = test system: Toxoplasma gondii; assay: Antiparasitic activity against Toxoplasma gondii infected in human foreskin fibroblasts assessed as tachyzoite growth inhibition after 5 days by colorimetric assay; assay type: functional, organism-based; conditions: 120 h
[3] = Cytotoxicity against human foreskin fibroblasts after 5 days by colorimetric assay; assay type: cell-based; conditions: human foreskin fibroblasts (HFF cells), read-out: TD50
[4] = Therapeutic index, ratio of TD50 for human foreskin fibroblasts to IC50 for Toxoplasma gondii infected in human foreskin fibroblasts; conditions: read-out: TI
[5] = test system: Toxoplasma gondii; assay: Antiparasitic activity against Toxoplasma gondii infected in human foreskin fibroblasts assessed as inhibition of replication measured as decrease in the number of tachyzoites in vacuole at 10 uM after 24 hrs by fluorescence assay; assay type: functional, organism-based
[6] = test system: Toxoplasma gondii; assay: Antiparasitic activity against Toxoplasma gondii infected in human foreskin fibroblasts assessed as inhibition of invasion compound pretreated at 10 uM for 20 mins before infection after 1 hr by fluorescence assay; assay type: functional, organism-based
[7] = test system: Toxoplasma gondii; assay: Antiparasitic activity against Toxoplasma gondii infected in human foreskin fibroblasts assessed as inhibition of tachyzoite replication compound pretreated at 10 uM for 24 hrs before infection by fluorescence assay; assay type: functional, organism-based
[8] = test system: Toxoplasma gondii; assay: Antiparasitic activity against Toxoplasma gondii infected in human foreskin fibroblasts assessed as inhibition of replication measured as recovery at 10 uM for 24 hrs followed by washout measured after 96 hrs by fluorescence assay; assay type: functional, organism-based

SMILES | inhibition [1] | IC50 [2] [µM] | IC90 [2] [µM] | CC50 at 120 h [3] [µM] | selectivity ratio [4] | inhibition [5] | inhibition [6] | inhibition [7] | inhibition [8]
O=C1CSC(NN=C2CCCCC2)=N1 | Active | 28 | 278 | ≥ 320 | 20 | Active | Active | – | –
CC1CC/C(=N/N=C2\NC(=O)CS2)C1 (stereo unspecified) | Active | 24 | 154 | ≥ 320 | 23 | Active | Active | – | –
C/C(=N/N=C1\NC(=O)CS1)c1cc2ccccc2oc1=O | Active | 8 | 49 | ≥ 320 | 70 | – | Active | – | –
CCCC/C(CC)=N\N=C1\SCC(=O)N1Cc1ccccc1 | Active | 15 | 121 | ≥ 320 | 37 | Active | Active | – | –
C/C(CC(C)C)=N/N=C1\NC(=O)CS1 | Active | 23 | 126 | 290 | 13 | Active | Active | – | –
O=C1CS/C(=N/N=C\c2cccc3ccccc23)N1Cc1ccccc1 | Active | 38 | 79 | ≥ 320 | 15 | – | Active | – | –
CC(C)=N/N=C1\NC(=O)CS1 | – | 210 | 852 | ≥ 320 | 3 | Active | – | inactive | –
O=C1CS/C(=N/N=C\c2cccc3ccccc23)N1 | Active | 3.9 | 31 | ≥ 320 | 144 | Active | Active | – | inactive
C/C(=N/N=C1/SCC(=O)N1Cc1ccccc1)C1CCCCC1 | – | 24 | 71 | 60 | 3 | Active | – | – | –
O=C1CS/C(=N/N=C2CCCC2)N1Cc1ccccc1 | – | 105 | 330 | ≥ 320 | 5 | Active | – | – | –
C/C(=N/N=C1/SCC(=O)N1Cc1ccccc1)c1ccncc1 | Active | 36 | 103 | 183 | 5 | Active | Active | – | –
C/C(=N/N=C1/SCC(=O)N1Cc1ccccc1)c1ccco1 | – | 76 | 212 | ≥ 320 | 7 | Active | – | – | –
CC1CCC/C1=N/N=C1\NC(=O)CS1 (stereo unspecified) | Active | 0.9 | 2 | 35 | 39 | Active | Active | – | –
C=CCC/C(C)=N\N=C1\SCC(=O)N1Cc1ccccc1 | – | 207 | 885 | ≥ 320 | 3 | Active | – | – | –
C/C(=N\N=C1/NC(=O)CS1)c1ccncc1 | – | 53 | 401 | ≥ 320 | 11 | Active | – | – | –
O=C1CSC(NN=C2CCCC2)=N1 | Active | 27 | 175 | ≥ 320 | 21 | Active | Active | – | –
O=C1CS/C(=N/N=C2CCCCC2)N1Cc1ccccc1 | – | 255 | 662 | ≥ 320 | 2 | Active | – | – | –

SMILES | inhibition [1] | IC50 [2] [µM] | IC90 [2] [µM] | CC50 at 120 h [3] [µM] | selectivity ratio [4] | inhibition [5] | inhibition [6] | inhibition [7] | inhibition [8]
CCC(CC)=N/N=C1\NC(=O)CS1 | – | 126 | 580 | ≥ 320 | 4 | Active | – | – | –
C/C(=N/N=C1\NC(=O)CS1)C1CCCCC1 | – | 55 | 283 | ≥ 320 | 10 | Active | – | – | –
CC(C)=C/C(C)=N\N=C1/NC(=O)CS1 | – | 97 | 316 | ≥ 320 | 6 | Active | – | – | –
C=CCC/C(C)=N\N=C1/NC(=O)CS1 | – | 195 | 2220 | ≥ 320 | 3 | Active | – | – | –
CCCCC/C(C)=N\N=C1\SCC(=O)N1Cc1ccccc1 | – | 19 | 120 | 88 | 5 | Active | – | – | –
CC(C)(C)C1CCCC/C1=N/N=C1/SCC(=O)N1Cc1ccccc1 (stereo unspecified) | – | 102 | 295 | ≥ 320 | 6 | Active | – | – | –
O=C1CS/C(=N/N=C\c2ccncc2)N1 | Active | 20 | 129 | ≥ 320 | 28 | Active | Active | – | –
O=C1CS/C(=N/N=C\c2ccco2)N1Cc1ccccc1 | – | 111 | 396 | ≥ 320 | 5 | Active | – | – | –
C/C(=N/N=C1\NC(=O)CS1)c1cccnc1 | – | 74 | 406 | ≥ 320 | 8 | Active | – | – | –
C/C(=N/N=C1\NC(=O)CS1)c1ccccn1 | – | 2.9 | 7 | 16 | 6 | Active | – | – | –
CCCCCC/C(C)=N\N=C1/NC(=O)CS1 | Active | 31 | 188 | ≥ 320 | 18 | Active | Active | – | –
CC(C)=C/C(C)=N\N=C1\SCC(=O)N1Cc1ccccc1 | – | 23 | 186 | 67 | 3 | Active | – | – | –
O=C1CSC(NN=C2CCCCCCC2)=N1 | – | 79 | 290 | 309 | 4 | Active | – | – | –
C/C(=N/N=C1/SCC(=O)N1Cc1ccccc1)c1cccs1 | Active | 37 | 84 | ≥ 320 | 15 | Active | Active | – | –
CCC/C(C)=N\N=C1/NC(=O)CS1 | – | 262 | 1060 | ≥ 320 | 2 | Active | – | – | –
CCC/C(C)=N\N=C1\SCC(=O)N1Cc1ccccc1 | – | 47 | 214 | ≥ 320 | 12 | Active | – | – | –
